From article PMC9874818 (Archiv Der Pharmazie, 2022)
Starred links: 1 amine or outer side, 2 acyl side, 3 side chain; linkers in the order of their positions; H or OH if unused. Residues, ends and D or L forms follow the SMILES beside them. CO = O=C([*:1])[*:2]

Tests used:
[1] = cited from earlier work
[2] = molecular target: TMPRSS2 (human recombinant) (Homo sapiens, UniProt O15393); assay type: biochemical; details: ratio of IC50 values
[3] = molecular target: CATSB (human liver) (Homo sapiens, UniProt P07858); assay: biochemical
[4] = molecular target: Furin (human recombinant aa108–715) (Homo sapiens, UniProt P09958); assay: biochemical
[5] = molecular target: CATSL (human liver) (Homo sapiens, UniProt P07711); assay: biochemical
CATSL (human liver), sequence (P07711 114-333): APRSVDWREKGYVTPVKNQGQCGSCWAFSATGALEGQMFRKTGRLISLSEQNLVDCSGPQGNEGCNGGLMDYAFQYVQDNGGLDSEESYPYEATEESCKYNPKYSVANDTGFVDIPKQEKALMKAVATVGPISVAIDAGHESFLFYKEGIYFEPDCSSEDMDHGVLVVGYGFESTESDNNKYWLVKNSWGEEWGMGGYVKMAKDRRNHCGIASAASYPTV

Furin (human recombinant aa108–715), sequence (P09958 108-715): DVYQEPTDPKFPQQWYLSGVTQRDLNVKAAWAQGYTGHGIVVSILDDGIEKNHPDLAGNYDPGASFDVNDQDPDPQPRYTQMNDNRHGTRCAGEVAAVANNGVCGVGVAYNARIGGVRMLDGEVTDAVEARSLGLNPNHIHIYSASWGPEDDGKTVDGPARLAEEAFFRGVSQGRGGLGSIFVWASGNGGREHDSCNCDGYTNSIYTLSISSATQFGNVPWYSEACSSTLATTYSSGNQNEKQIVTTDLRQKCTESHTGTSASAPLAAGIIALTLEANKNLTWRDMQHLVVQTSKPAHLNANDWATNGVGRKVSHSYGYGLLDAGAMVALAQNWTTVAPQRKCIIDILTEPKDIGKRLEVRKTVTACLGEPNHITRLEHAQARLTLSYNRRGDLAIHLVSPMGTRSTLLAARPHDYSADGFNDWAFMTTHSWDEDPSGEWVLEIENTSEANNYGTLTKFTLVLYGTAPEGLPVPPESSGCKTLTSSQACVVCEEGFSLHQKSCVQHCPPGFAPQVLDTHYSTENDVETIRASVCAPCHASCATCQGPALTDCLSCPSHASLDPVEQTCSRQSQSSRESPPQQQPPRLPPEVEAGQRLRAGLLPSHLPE
TMPRSS2 (human recombinant), sequence (O15393 whole entry): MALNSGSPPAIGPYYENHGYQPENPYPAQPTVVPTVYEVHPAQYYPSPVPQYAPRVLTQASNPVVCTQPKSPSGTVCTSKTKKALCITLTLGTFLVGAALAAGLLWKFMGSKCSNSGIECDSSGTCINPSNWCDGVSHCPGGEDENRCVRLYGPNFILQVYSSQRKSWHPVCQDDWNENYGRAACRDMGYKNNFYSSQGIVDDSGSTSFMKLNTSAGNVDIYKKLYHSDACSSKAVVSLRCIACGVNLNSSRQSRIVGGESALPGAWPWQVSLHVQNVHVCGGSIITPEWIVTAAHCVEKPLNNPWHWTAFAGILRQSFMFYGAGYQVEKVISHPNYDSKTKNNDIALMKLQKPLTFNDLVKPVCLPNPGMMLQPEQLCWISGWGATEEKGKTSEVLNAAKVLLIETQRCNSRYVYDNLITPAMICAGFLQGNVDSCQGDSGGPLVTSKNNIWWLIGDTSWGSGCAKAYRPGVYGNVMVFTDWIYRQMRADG

SMILES | plasma half-life [1] | increase in TMPRSS2 potency over BC-11 [2] | IC50 [3] | IC50 [4] | IC50 [5]
N=C(N)c1ccc2cc(OC(=O)c3ccc(N=C(N)N)cc3)ccc2c1 [nafamostat] | approximately an hour or less |  |  |  | 
CC(C)[C@H](NC(=O)[C@H](CCCNC(=N)N)NC(=O)N[C@@H](Cc1ccccc1)C(=O)O)C(=O)N[C@H](C=O)CCCNC(=N)N [antipain, L‐Phe‐CO‐L‐Arg‐L‐Val‐L‐Arg‐H] ({Phe-CO}-Arg-Val-Arg-aldehyde) |  | 2 fold | 24.1 nM | 4.17 µM | 2.74 nM
CN(C)C(=O)COC(=O)Cc1ccc(OC(=O)c2ccc(NC(=N)N)cc2)cc1 [camostat] | approximately an hour or less |  |  |  | 
